One assay addresses T1, OST (Canis lupus familiaris, UniProt F1PJP5).
T1 construct: rabbit reticulocyte lysate translation system supplemented with canine pancreas rough microsomes (cRM); from tissue; host or cells: canine pancreas rough microsomes
T1 sequence (F1PJP5 1-705): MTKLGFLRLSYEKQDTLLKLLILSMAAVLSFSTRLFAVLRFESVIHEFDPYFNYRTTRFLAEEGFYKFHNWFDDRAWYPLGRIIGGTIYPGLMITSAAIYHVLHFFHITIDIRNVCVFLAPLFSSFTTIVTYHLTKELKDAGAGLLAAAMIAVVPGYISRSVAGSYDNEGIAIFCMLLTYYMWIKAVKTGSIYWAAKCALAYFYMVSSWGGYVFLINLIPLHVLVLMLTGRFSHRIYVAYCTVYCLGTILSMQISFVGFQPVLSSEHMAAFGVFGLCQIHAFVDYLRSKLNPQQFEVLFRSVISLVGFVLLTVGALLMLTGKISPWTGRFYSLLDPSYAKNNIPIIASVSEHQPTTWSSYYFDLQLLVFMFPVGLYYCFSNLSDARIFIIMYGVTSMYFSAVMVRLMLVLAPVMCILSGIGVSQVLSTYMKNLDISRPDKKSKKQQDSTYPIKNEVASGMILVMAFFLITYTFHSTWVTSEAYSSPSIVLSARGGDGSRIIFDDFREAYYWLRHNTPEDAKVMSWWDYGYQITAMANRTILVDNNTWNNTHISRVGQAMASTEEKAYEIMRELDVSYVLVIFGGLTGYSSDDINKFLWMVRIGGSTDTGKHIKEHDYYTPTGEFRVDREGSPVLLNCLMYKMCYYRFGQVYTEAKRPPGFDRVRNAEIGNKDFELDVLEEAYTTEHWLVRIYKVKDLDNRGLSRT
Description: Cell free OST inhibition, canine pancreas microsomes with in vitro translation of pSAP mRNA. In kind it is biochemical. As to conditions: FIG. 2D. The procedure: FIGS. 2A-2I illustrate the finding that NGI-1 blocks OST function. FIG. 2A illustrates the western blots of glycosylated luciferase (Luc) after treatment with 1 μM tunicmaycin (Tn) and 10 μM NGI-1 in CHO-Lec15 and CHO-Lec35 cells with stable expression of ER-LucT. FIG. 2B is a […] illustrating FACE analysis of lipid linked oligosaccharides (LLOs). FIG. 2C is a series of western blots illustrating the effects of NGI-1 (5 μM) on free oligosaccharides (left panel) and N-linked glycans cleaved from peptides with Peptide-N-Glycosidase F (right panel). Carbohydrate size is indicated with glucose markers (G4-G7). FIG. 2D is a western blot illustrating cell free inhibition of the OST using a rabbit reticulocyte lysate translation system supplemented with canine pancreas rough microsomes (cRM). […] FIGS. 2G-2H: Dose response and quantitation of NGI-1 effect on pSAP (squares) and SHBG glycosylation (circles). […]
The OST is an ER resident multi-subunit complex that cleaves LLOs and transfers the oligosaccharide to a protein encoded N-linked glycosylation consensus sequence (NXT/S). […] Both enzymatic products of the OST, free glycans and protein glycans, were therefore determined with and without NGI-1 treatment using optimized conditions in streptolysin-O permeabilized CHO cells (FIG. 2C). […]

Another assay deals with PC9 cells. Description: MTT proliferation assay, PC9. As to conditions: PC9, 10 μM NGI-1, after 3 days, p<0.001. It is filed as cell-based. Here is the method: FIGS. 4A-4H illustrate the finding that NGI-1 blocks RTK driven proliferation. FIG. 4A illustrates western blot analysis of EGFR phosphorylation (Y1173) and gel mobility in PC9 (EGFR-mutant) and A549 (k-ras mutant) NSCLC cells after 10 μM NGI-1 treatment for 24 h. […] Actin expression was used as a control for protein loading. FIG. 4B illustrates MTT assays results of PC9 following treatment with 10 μM NGI-1 or 1 μM tunicamycin for a total of 5 d. Relative proliferation id reported in fold increase from day 0. FIG. 4C illustrates MTT assays results of A549 following treatment with 10 μM NGI-1 or 1 μM tunicamycin for a total of 5 d. Relative proliferation id reported in fold increase from day 0. FIG. 4D illustrates protein phosphorylation profiles of PC9 cells analyzed by phospho-protein array to assess the response of PC9 to 10 μM NGI-1 for 24 h. FIG. 4E illustrates protein phosphorylation profiles of A549 cells analyzed by phospho-protein array to assess the response of A549 to 10 μM NGI-1 for 24 h. […]
Growth rates were determined by CellTiter 96 NonRadioactive Cell Proliferation Assay (Promega; Madison, Wis. USA) according to the manufacturer's directions. […] Cell numbers were estimated after 0, 3, and 5 days by adding MTT [(3-(4,5-Dimethylthiazol-2-yl)-2,5-diphenyltetrazolium bromide] reagent to the wells 4 hours before taking the spectrophotometric reading (absorbance at 570 nm).
For orientation: Formazan colour is commonly taken as a measure of viable cells.

Take `Cc1cnc(NC(=O)c2cc(S(=O)(=O)N(C)C)ccc2N2CCCC2)s1` [NGI-1, 5-(N,N-Dimethylsulfamoyl)-N-(5-methylthiazol-2-yl)-2-(pyrrolidin-1-yl)benzamide]: the “inhibition of pSAP N-linked glycosylation, cell free” value at OST is reported as “dose dependent inhibition of pSAP N-linked glycosylation”. Moreover, the “reduction of cell proliferation, MTT” value in the assay on PC9 cells was “more than 90%”.
